From PMC10010643 (Cancer Chemotherapy and Pharmacology, 2023)
Where “and” joins values, the source holds several entries; their conditions need not be identical. Equal values may be shown once. Entries after “also recorded” stand apart in the source; their conditions may differ. Read-outs that look alike come from different tables or passages of the source.

Key:
[1] = set-up: method as in PMID 36154172; conditions: in mice; cited from earlier work
[2] = Plasma PK, Part A single oral doses in healthy participants; format: in vivo, human; conditions: for AUC(0-t) / AUC(0-inf) / Cmax / Tmax / Vd/F / half-life: human, plasma; for Vd/F: read-out: Vz/F, geometric mean (CV%)
Method: A further two cohorts were recruited. […] Each individual participated in one treatment period only, with the exception of the food-effect cohort (cohort A3) in which there were two treatment periods separated by at least 7 days washout. Participants resided at the Clinical Research Unit (CRU) from 1 day ahead of dosing (day − 1) to day 3 and returned for a follow-up visit 5–7 days after their final dose. For all cohorts, doses were administered in the fasted state in the morning of day 1 of Treatment Period 1. In the food-effect cohort, doses were given 30 min after the start of a high-fat breakfast (973 calories total: approximately 150 protein calories, 250 carbohydrate calories, and 500–600 fat calories) on day 1 of Treatment Period 2. For cohorts A1 to A5 in Treatment Period 1, dosing occurred such that one pair (one active and one placebo) were dosed at least 24 h before the remaining participants. Continuation to dose those who remained was at the investigator’s discretion. Escalating doses were administered following satisfactory sponsor and investigator review of the safety and tolerability data (up to 48 h post-final dose) and PK data (up to 24 h post-final dose) from the lower dose levels.
Blood samples (4 mL) were collected in K3 EDTA tubes by venipuncture or cannulation. In Part A, samples were taken pre-dose and at 0.5, 1, 1.5, 2, 3, 4, 6, 8, 12, 16, 24, 36 and 48 h post-dose. In part B, samples were taken pre-dose on days 1 (pre-AM dose) and 10 (pre-final dose) and at 0.5, 1, 1.5, 2, 3, 4, 6, 8 and 12 h post-AM dose for day 1 and post-final dose for day 10. Samples were also taken on days 4–9 pre-AM dose, on day 11 at 24 and 36 h post-final dose, and on day 12 at 48 h post-final dose. Blood samples were centrifuged at 1500 g for 10 min at […] and split into two plasma aliquots.
Urine was collected by spot collection in Part A only before dosing and between 0–6, 6–12, 12–24, and 24–48 h post-dose. Blood and urine aliquots were stored in polypropylene tubes at − 70 °C until bioanalysis.
Noncompartmental PK analysis was performed on individual plasma and urine concentration data, using Phoenix® WinNonlin® 8.1 software (Certara USA Inc., Princeton NJ). Plasma PK parameter endpoints for Part A included area under the plasma concentration–time curve (AUC) from time 0 to infinity (AUC0–∞), AUC from time 0 to the time of the last quantifiable concentration (AUC0–tlast), maximum observed plasma concentration (Cmax), time of the maximum observed plasma concentration (Tmax), terminal half-life in plasma (t½), apparent total plasma clearance (CL/F), and apparent volume of distribution (Vz/F). Urine PK parameters calculated in Part A included amount of drug excreted in urine (Ae), percentage of dose excreted unchanged in urine (fe) and renal clearance (CLR).
Dose proportionality was analyzed for exposure parameters after fasted doses. The power model was used on AUC0–∞, AUC0–tlast, and Cmax on day 1 in Part A. Data were analyzed over two dose ranges: 50–400 mg (50 mg capsules) and 5–50 mg (5 mg capsules). An analysis of variance was used on AUC0–τ and Cmax on day 10 in Part B. The effect of food on AUC0–∞, AUC0–tlast, and Cmax at 50 mg in Part A was investigated using a mixed model which included treatment as a fixed effect and subject as a random effect.

[3] = 50 mg after a high-fat meal vs fasted

## OC[C@H]1O[C@H](Sc2cncc(Br)c2)[C@H](O)[C@@H](n2cc(-c3cc(F)c(F)c(F)c3)nn2)[C@H]1O [GB1211]
[1]
  Oral bioavailability: 68%
[2]; [3]
  Delay of absorption in the fed state: 2 h and ~ 2 h
  Effect of food on systemic exposure: unaffected; also recorded: did not markedly affect systemic exposure; also recorded: minor food-effect on drug disposition
[2]; 5–50 mg (5 mg capsule) dose range
  Dose proportionality of systemic exposure: dose-proportional manner
[2]; 50–400 mg (50 mg capsule) dose range
  Dose proportionality of systemic exposure: sub-proportional manner
[2]; oral, 5 mg, single dose 5 mg (1 × 5 mg), fasted, read-out: AUC0–tlast, geometric mean (CV%)
  AUC(0-t): 677 ng·h/mL
[2]; oral, 5 mg, single dose 5 mg (1 × 5 mg), fasted, read-out: AUC0–∞, geometric mean (CV%)
  AUC(0-inf): 712 ng·h/mL
[2]; oral, 5 mg, single dose 5 mg (1 × 5 mg), fasted, read-out: Cmax, geometric mean (CV%)
  Cmax: 75.2 ng/mL
[2]; oral, 5 mg, single dose 5 mg (1 × 5 mg), fasted, read-out: Tmax, median (min–max)
  Tmax: 2 h
[2]; oral, 5 mg, single dose 5 mg (1 × 5 mg), fasted
  Vd/F: 114 L
[2]; oral, 5 mg, single dose 5 mg (1 × 5 mg), fasted, read-out: t½, arithmetic mean (SD) (converted)
  half-life: 11.3 h
[2]; oral, 20 mg, single dose 20 mg (4 × 5 mg), fasted, read-out: AUC0–tlast, geometric mean (CV%)
  AUC(0-t): 3150 ng·h/mL
[2]; oral, 20 mg, single dose 20 mg (4 × 5 mg), fasted, read-out: AUC0–∞, geometric mean (CV%)
  AUC(0-inf): 3350 ng·h/mL
[2]; oral, 20 mg, single dose 20 mg (4 × 5 mg), fasted, read-out: Cmax, geometric mean (CV%)
  Cmax: 365 ng/mL
[2]; oral, 20 mg, single dose 20 mg (4 × 5 mg), fasted, read-out: Tmax, median (min–max)
  Tmax: 1.75 h
[2]; oral, 20 mg, single dose 20 mg (4 × 5 mg), fasted
  Vd/F: 104 L
[2]; oral, 20 mg, single dose 20 mg (4 × 5 mg), fasted, read-out: t½, arithmetic mean (SD) (converted)
  half-life: 12.2 h
[2]; oral, 50 mg, Fasted, read-out: AUC0–tlast, geometric LS means
  AUC(0-t): 4180 ng·h/mL
[2]; oral, 50 mg, Fasted, read-out: AUC0–∞, geometric LS means
  AUC(0-inf): 4520 ng·h/mL
[2]; oral, 50 mg, Fasted, read-out: Cmax, geometric LS means
  Cmax: 358 ng/mL
[2]; oral, 50 mg, Fed, read-out: AUC0–tlast, geometric LS means
  AUC(0-t): 4930 ng·h/mL
[2]; oral, 50 mg, Fed, read-out: AUC0–∞, geometric LS means
  AUC(0-inf): 5420 ng·h/mL
[2]; oral, 50 mg, Fed, read-out: Cmax, geometric LS means
  Cmax: 389 ng/mL
[2]; oral, 50 mg, single dose 50 mg (1 × 50 mg), fasted, read-out: AUC0–tlast, geometric mean (CV%)
  AUC(0-t): 4180 ng·h/mL
[2]; oral, 50 mg, single dose 50 mg (1 × 50 mg), fasted, read-out: AUC0–∞, geometric mean (CV%)
  AUC(0-inf): 4520 ng·h/mL
[2]; oral, 50 mg, single dose 50 mg (1 × 50 mg), fasted, read-out: Cmax, geometric mean (CV%)
  Cmax: 358 ng/mL
[2]; oral, 50 mg, single dose 50 mg (1 × 50 mg), fasted, read-out: Tmax, median (min–max)
  Tmax: 3.04 h
[2]; oral, 50 mg, single dose 50 mg (1 × 50 mg), fasted
  Vd/F: 200 L
[2]; oral, 50 mg, single dose 50 mg (1 × 50 mg), fasted, read-out: t½, arithmetic mean (SD) (converted)
  half-life: 12.7 h
[2]; oral, 50 mg, single dose 50 mg (1 × 50 mg), fed, read-out: AUC0–tlast, geometric mean (CV%)
  AUC(0-t): 4930 ng·h/mL
[2]; oral, 50 mg, single dose 50 mg (1 × 50 mg), fed, read-out: AUC0–∞, geometric mean (CV%)
  AUC(0-inf): 5420 ng·h/mL
[2]; oral, 50 mg, single dose 50 mg (1 × 50 mg), fed, read-out: Cmax, geometric mean (CV%)
  Cmax: 389 ng/mL
[2]; oral, 50 mg, single dose 50 mg (1 × 50 mg), fed, read-out: Tmax, median (min–max)
  Tmax: 5 h
[2]; oral, 50 mg, single dose 50 mg (1 × 50 mg), fed
  Vd/F: 169 L
[2]; oral, 50 mg, single dose 50 mg (1 × 50 mg), fed, read-out: t½, arithmetic mean (SD) (converted)
  half-life: 12.9 h
[2]; oral, 50 mg, single dose 50 mg (10 × 5 mg), fasted, read-out: AUC0–tlast, geometric mean (CV%)
  AUC(0-t): 6890 ng·h/mL
[2]; oral, 50 mg, single dose 50 mg (10 × 5 mg), fasted, read-out: AUC0–∞, geometric mean (CV%)
  AUC(0-inf): 7480 ng·h/mL
[2]; oral, 50 mg, single dose 50 mg (10 × 5 mg), fasted, read-out: Cmax, geometric mean (CV%)
  Cmax: 861 ng/mL
[2]; oral, 50 mg, single dose 50 mg (10 × 5 mg), fasted, read-out: Tmax, median (min–max)
  Tmax: 1.75 h
[2]; oral, 50 mg, single dose 50 mg (10 × 5 mg), fasted
  Vd/F: 133 L
[2]; oral, 50 mg, single dose 50 mg (10 × 5 mg), fasted, read-out: t½, arithmetic mean (SD) (converted)
  half-life: 13.8 h
[2]; oral, 100 mg, single dose 100 mg (2 × 50 mg), fasted, read-out: AUC0–tlast, geometric mean (CV%)
  AUC(0-t): 5910 ng·h/mL
[2]; oral, 100 mg, single dose 100 mg (2 × 50 mg), fasted, read-out: AUC0–∞, geometric mean (CV%)
  AUC(0-inf): 6380 ng·h/mL
[2]; oral, 100 mg, single dose 100 mg (2 × 50 mg), fasted, read-out: Cmax, geometric mean (CV%)
  Cmax: 525 ng/mL
[2]; oral, 100 mg, single dose 100 mg (2 × 50 mg), fasted, read-out: Tmax, median (min–max)
  Tmax: 3.5 h
[2]; oral, 100 mg, single dose 100 mg (2 × 50 mg), fasted
  Vd/F: 282 L
[2]; oral, 100 mg, single dose 100 mg (2 × 50 mg), fasted, read-out: t½, arithmetic mean (SD) (converted)
  half-life: 12.8 h
[2]; oral, 200 mg, single dose 200 mg (4 × 50 mg), fasted, read-out: AUC0–tlast, geometric mean (CV%)
  AUC(0-t): 11500 ng·h/mL
[2]; oral, 200 mg, single dose 200 mg (4 × 50 mg), fasted, read-out: AUC0–∞, geometric mean (CV%)
  AUC(0-inf): 12900 ng·h/mL
[2]; oral, 200 mg, single dose 200 mg (4 × 50 mg), fasted, read-out: Cmax, geometric mean (CV%)
  Cmax: 1010 ng/mL
[2]; oral, 200 mg, single dose 200 mg (4 × 50 mg), fasted, read-out: Tmax, median (min–max)
  Tmax: 3.5 h
[2]; oral, 200 mg, single dose 200 mg (4 × 50 mg), fasted
  Vd/F: 344 L
[2]; oral, 200 mg, single dose 200 mg (4 × 50 mg), fasted, read-out: t½, arithmetic mean (SD) (converted)
  half-life: 15.5 h
[2]; oral, 400 mg, single dose 400 mg (8 × 50 mg), fasted, read-out: AUC0–tlast, geometric mean (CV%)
  AUC(0-t): 19000 ng·h/mL
[2]; oral, 400 mg, single dose 400 mg (8 × 50 mg), fasted, read-out: AUC0–∞, geometric mean (CV%)
  AUC(0-inf): 21600 ng·h/mL
[2]; oral, 400 mg, single dose 400 mg (8 × 50 mg), fasted, read-out: Cmax, geometric mean (CV%)
  Cmax: 1550 ng/mL
[2]; oral, 400 mg, single dose 400 mg (8 × 50 mg), fasted, read-out: Tmax, median (min–max)
  Tmax: 4 h
[2]; oral, 400 mg, single dose 400 mg (8 × 50 mg), fasted
  Vd/F: 398 L
[2]; oral, 400 mg, single dose 400 mg (8 × 50 mg), fasted, read-out: t½, arithmetic mean (SD) (converted)
  half-life: 15.2 h
[2]; oral, 5–50 mg (5 mg capsule), single dose, fasted, read-out: Median Tmax, range across doses
  Tmax: 1.75 to 2 h
[2]; oral, 50–400 mg (50 mg capsule), single dose, fasted, read-out: Median Tmax, range across doses
  Tmax: 3.04 to 4 h
[2]; po, single and multiple oral doses, fasted, read-out: Mean half-life, range across doses
  half-life: 11 to 16 h
[2]; po, single and multiple oral doses, fasted, read-out: Time of maximum plasma concentration (median), range across doses
  Tmax: 1.75 to 4 h
[2]; po, single oral dose, read-out: Arithmetic mean terminal half-life (t½), range across doses
  half-life: 11.3 to 15.5 h
[2]; single dose 5 mg (1 × 5 mg), fasted
  CL/F, geometric mean (CV%): 7.02 (24.5) L/h
[2]; single dose 20 mg (4 × 5 mg), fasted
  CL/F, geometric mean (CV%): 5.97 (10.2) L/h
[2]; single dose 50 mg (1 × 50 mg), fasted
  CL/F, geometric mean (CV%): 11.1 (43.2) L/h
[2]; single dose 50 mg (1 × 50 mg), fed
  CL/F, geometric mean (CV%): 9.23 (21.5) L/h
[2]; single dose 50 mg (10 × 5 mg), fasted
  CL/F, geometric mean (CV%): 6.69 (42.6) L/h
[2]; single dose 100 mg (2 × 50 mg), fasted
  CL/F, geometric mean (CV%): 15.7 (21.1) L/h
[2]; single dose 200 mg (4 × 50 mg), fasted
  CL/F, geometric mean (CV%): 15.5 (33.7) L/h
[2]; single dose 400 mg (8 × 50 mg), fasted
  CL/F, geometric mean (CV%): 18.5 (25.0) L/h
